Our source for the TGI values is PubChem BioAssay (NCI).

Among the test systems are M19-MEL melanoma; LXFL 529 NSCLC; DLD-1 colon; DMS 114 small cell lung; SNB-78 CNS; HOP-18 NSCLC; KM20L2 colon; RXF-631 renal.
Holding throughout (experiment): DTP human tumour cell line panel, 48 h

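In this assay, cells in 96-well plates receive the compound at five concentrations for 48 hours. Endpoints are linearly interpolated between the surrounding concentrations. The concentration for full growth arrest is given as TGI.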

With `O=C(Cl)c1cc([N+](=O)[O-])cc([N+](=O)[O-])c1`, the TGI in the test with M19-MEL melanoma, in the test with LXFL 529 NSCLC, in the test with DLD-1 colon, in the test with DMS 114 small cell lung and with SNB-78 CNS was more than 100 µM in each case.

For the compound `COc1cc(/C=C/C(=O)C(C)(C)C)cc(OC)c1OC`, the TGI – broadly, the concentration at which net growth stops – was more than 100 µM in the test with M19-MEL melanoma; more than 100 µM in the test on HOP-18 NSCLC; 93.5 µM with LXFL 529 NSCLC; more than 100 µM with DLD-1 colon; 71.5 µM in the test on DMS 114 small cell lung; more than 100 µM in the test with KM20L2 colon.

Consider `Nc1nc(NC(=O)C2=NS(=O)(=O)c3cc(S(N)(=O)=O)c(Cl)cc3N2)n[nH]1`, for which the TGI in the test on M19-MEL melanoma, in the test on HOP-18 NSCLC, with LXFL 529 NSCLC, with DLD-1 colon, in the test on DMS 114 small cell lung and in the test with SNB-78 CNS was more than 100 µM in each case. In addition, the TGI in the test with KM20L2 colon was more than 100 µM.

In the case of `COC(=O)c1cc(CNCCc2c[nH]c3ccccc23)on1`, the concentration for total growth inhibition (TGI) in the test with RXF-631 renal, with M19-MEL melanoma, with LXFL 529 NSCLC, in the test on DLD-1 colon, in the test with DMS 114 small cell lung and in the test with KM20L2 colon was more than 100 µM throughout.

In the case of `CC(=O)NC(Cc1ccccc1)C(=S)N1CCCC1` (stereo not given), the TGI in the test with RXF-631 renal, in the test on M19-MEL melanoma, with HOP-18 NSCLC, in the test on LXFL 529 NSCLC, in the test on DLD-1 colon and in the test with DMS 114 small cell lung was more than 100 µM each time. The TGI in the test on SNB-78 CNS and with KM20L2 colon was more than 100 µM each time.

Consider `Cc1ccc(CCNC(=S)SCC(NC(=O)CCC(N)C(=O)O)C(=O)NCC(=O)O)cc1` (stereo not given), for which the TGI in the test on RXF-631 renal worked out at 5.62 µM; with M19-MEL melanoma it was 4.07 µM; in the test on HOP-18 NSCLC, 7.76 µM; with LXFL 529 NSCLC it was 2.12 µM; with DLD-1 colon it was 2.63 µM; with DMS 114 small cell lung it was 2.72 µM. Besides, the TGI in the test with KM20L2 colon was determined as 5.1 µM.

Take `C[N+](C)(C)CC(=O)N/N=C(\C(=O)Nc1ccc(Cl)cc1)C1C(=O)N(c2ccccc2)N=C1N` (stereo not given): the TGI with M19-MEL melanoma, in the test with LXFL 529 NSCLC, with DLD-1 colon, in the test on DMS 114 small cell lung, with SNB-78 CNS and with KM20L2 colon was more than 100 µM in each case.

With `CCN(CC)CC(C(=O)Nc1c(C)cccc1C)/C(C)=N/NC(N)=S` (stereo not given), the TGI in the test with RXF-631 renal, with M19-MEL melanoma, in the test with LXFL 529 NSCLC, in the test on DLD-1 colon, with DMS 114 small cell lung and in the test on SNB-78 CNS was more than 100 µM each time. For the same compound, the TGI with KM20L2 colon was more than 100 µM.

In the case of `O=C(N/N=C/c1cc(-c2ccccc2Cl)c(-c2ccccc2Cl)o1)c1ccncc1`, the TGI with RXF-631 renal, with M19-MEL melanoma, in the test with LXFL 529 NSCLC, in the test with DLD-1 colon, in the test with DMS 114 small cell lung and with KM20L2 colon was more than 100 µM in each case.

`COc1ccc(C2Oc3cc(OC)c(O)cc3[C@@H]2C)cc1` (stereo not given in full): the TGI was more than 100 µM in the test with HOP-18 NSCLC; 32.1 µM with LXFL 529 NSCLC; 44.4 µM in the test with DLD-1 colon; 40.3 µM in the test on DMS 114 small cell lung; more than 100 µM in the test on SNB-78 CNS; more than 100 µM in the test on KM20L2 colon.

Regarding `COc1cc2c(oc(=O)c3c4oc([Si](C)(C)C)cc4cc(OC)c23)c2cccc(O)c12`, the TGI with M19-MEL melanoma, in the test with HOP-18 NSCLC, with LXFL 529 NSCLC, in the test on DLD-1 colon, in the test with DMS 114 small cell lung and in the test on KM20L2 colon was more than 100 µM each time.

Take `Cc1cn2cc(-c3ccncc3)nc2s1`: the TGI in the test on RXF-631 renal, in the test with M19-MEL melanoma, in the test with HOP-18 NSCLC, with LXFL 529 NSCLC, in the test with DLD-1 colon and with DMS 114 small cell lung was more than 100 µM in each case. Also, the TGI in the test with SNB-78 CNS and in the test on KM20L2 colon was more than 100 µM each time.

On to `O=c1[nH]c2cccccc-2c1-c1nc2ccccc2[nH]1`, for which the TGI in the test on M19-MEL melanoma, in the test on LXFL 529 NSCLC, in the test on DLD-1 colon, with DMS 114 small cell lung, with SNB-78 CNS and with KM20L2 colon was more than 100 µM throughout.

As to `COc1ccccc1C1C(Cl)C(=O)N1NC(=O)Cc1ccccc1` (stereo not given), the TGI with M19-MEL melanoma, in the test on HOP-18 NSCLC, with LXFL 529 NSCLC, in the test on DMS 114 small cell lung, with SNB-78 CNS and in the test with KM20L2 colon was more than 100 µM in each case.
